Measurements reported in US20150216870A1, “Combination of PI3K Inhibitor and C-Met Inhibitor” (Novartis AG, priority 2012, published 2015).

Columns and labels:
[1] = tested on: U-87 MG human glioblastoma xenograft; assay: U-87 MG xenograft tumor growth inhibition and tumor growth delay; format: in vivo, nude mice; details: for T/C or T/T0: D13; for Median TTE: endpoint 2000 mm3; for Regress.: PR: number of animals
Procedure: In this experiment, the U-87 MG human glioblastoma xenograft model is used to assess the anti-tumor efficacy of the PI3K inhibitor COMPOUND C and c-Met inhibitor 2-fluoro-N-methyl-4-[7-quinolin-6-yl-methyl)-imidazo[1,2-b][1,2,4]triazin-2yl]benzamide as single agents or in combination. U-87 MG tumor cells obtained from the National Cancer Institute are reported to be homozygous for likely oncogenic variants of CDKN2A, CDKN2C, CDKN2a, and PTEN; no mutations are detected in MET, PIK3CA, or 58 other genes that are frequently altered in neoplastic cells; and HGF expressing.
Mice are treated daily for 21 days with 17.7 and 35.3 mg/kg of the c-Met inhibitor and 32.7 mg/kg COMPOUND C monotherapies, and with the c-Met inhibitor/COMPOUND C dual therapy at 17.7:32.7. An c-Met inhibitor/COMPOUND C combination at the 58.8:5.4 mg/kg dose ratio was included in the study. The control mice received both vehicles, and a standard preclinical temozolomide regimen monitored tumor model performance. The oral treatments began on Day 1 (D1) in nude mice with established subcutaneous tumors. Each animal was euthanized when its tumor reached the predetermined 2000 mm3 endpoint volume, or on D60, whichever came first. The study was terminated on D51. […] Overall efficacy was determined from the times required for tumors to progress to the volume endpoint, and from D51 survival and regression rates. This report describes the methods and results of the U87MG-e326 tumor growth delay experiment.
The animals are fed ad libitum water (reverse osmosis, 1 ppm CI) and NIH 31 Modified and Irradiated Lab Diet® consisting of 18.0% crude protein, 5.0% crude fat, and 5.0% crude fiber. The mice are housed on irradiated Enrich-O'cobs™ Laboratory Animal Bedding in static microisolators on a 12-hour light cycle at 20-22° C. (68-72° F.) and 40-60% humidity.
The U-87 MG tumor line is obtained from the American Type Culture Collection and maintained by serial engraftment in nude mice. A tumor fragment (1 mm^3) is implanted subcutaneously into the right flank of each test mouse. Tumors are calipered in two dimensions to monitor growth as their mean volume approached the desired 100-150 mm^3 range. Tumor size, in mm^3, was calculated from: Tumor Volume=(width^2×length)/2, where width and length (in mm) are measurements of the tumor. Tumor weight can be estimated with the assumption that 1 mg is equivalent to 1 mm^3 of tumor volume. Fourteen days after tumor cell implantation, on D1 of the study, mice with individual tumor volumes of 63-196 mm^3 are sorted into seven groups, with group mean tumor volumes of 122-127 mm^3.
The c-Met inhibitor 2-fluoro-N-methyl-4-[7-quinolin-6-yl-methyl)-imidazo[1,2-b][1,2,4]triazin-2yl]benzamide (di-HCl salt, 84.98% free base) is stored at 4° C. and is added to deionized water at 2× the final concentration and sonicated until dissolved. An equal volume of 0.5% methylcellulose and 0.1% Tween® 80 in deionized water is added to provide a 5.884 mg/mL dosing solution in 0.25% methylcellulose and 0.05% Tween® 80 in deionized water (Vehicle 1). Portions of this solution are diluted with Vehicle 1 to provide 3.53 and 1.765 mg/mL dosing solutions.
COMPOUND C (HCl salt, 91.85% free base) is stored at −20° C. and is added to 1% Tween® 80 in deionized water and sonicated to obtain a uniform suspension at 2× the final concentration. […] The 0.544 mg/mL dosing suspension is obtained by diluting a portion of the first suspension with Vehicle 2.

[2] = tested on: H4; assay: CellTiter-Glo cell viability dose matrix in H4 glioblastoma cells; format: cell-based, human; details: H4 (PTEN mutant, HGF expressing)
Procedure: (§1) The PI3K inhibitor COMPOUND C and the c-MET receptor tyrosine kinase inhibitor 2-fluoro-N-methyl-4-[7-quinolin-6-yl-methyl)-imidazo[1,2-b][1,2,4]triazin-2yl]benzamide are evaluated in combination in glioblastoma tumor models. COMPOUND C (10 mM) and 2-fluoro-N-methyl-4-[7-quinolin-6-yl-methyl)-imidazo[1,2-b][1,2,4]triazin-2yl]benzamide (10 mM) are dissolved in DMSO, and are stored in aliquots at −20° C.
(§2) Human Glioblastoma cell lines, U-87 MG (PTEN mutant and HGF expressing line), H4 (PTEN mutant and HGF expressing line), A172 (PTEN mutant line with low HGF expression level) and LN-229 (PTEN wildtype and HGF low) are purchased from American Type Cell Collection and are maintained in a humidified incubator at 37° C. in 5% CO2 in recommended media. All four cell lines express detected MET at the mRNA level.
(§3) The cells are passaged twice a week and the medium is changed every 2 to 3 days. […]
(§4) Cell viability is determined by measuring cellular ATP content using the CellTiter-Glo® (CTG) luminescent cell viability assay (Promega). […] An equal volume of the CTG reagents is added to each well at the end of the compound treatment and luminescence is recorded on an Envision plate reader (Perkin Elmer). Reduced and enhanced luminescent signal values (responses) are calculated relative to untreated (control) cells. […]

[3] = Toxicity (body weight, deaths) in NCI-H1993 xenograft study; format: in vivo; details: c-Met inhibitor 17.7 mg/kg p.o. b.i.d. to end
Procedure: Animals are weighed on Days 1-5, on each treatment day (except weekends), and twice weekly thereafter, until the end of the study. The maximum group mean body weight (BW) loss is determined for the interval between D1 and D20 as well as for the entire study. Group mean BW nadir determinations exclude measurements taken after more than 50% of the assessable mice in the group have exited the study, and also exclude any animal that was classified as a non-treatment related (NTR) death during the study. Acceptable toxicity for the maximum tolerated dose (MTD) is defined as a group mean BW loss of less than 15% during the test, and not more than one TR death among ten animals. Any animal with BW losses exceeding 15% for three consecutive measurements, or with a BW loss exceeding 20% for one measurement, are euthanized, and classified as a TR death unless it was the first death in the group. A death is classified as NTR if there was no evidence that the death is related to treatment side effects and the death occurs more than 14 days after dosing ended. NTR deaths are categorized as NTRa (due to accident or error), NTRu (due to unknown causes), or NTRm (necropsy-confirmed tumor dissemination by invasion and/or metastasis). To conserve animals while providing maximum information, the first death in a group was classified as NTRu; such an NTR death was to be reclassified as TR if two subsequent TR deaths are recorded in the same group.

[4] = tested on: LN-229; assay: CellTiter-Glo cell viability dose matrix in LN-229 glioblastoma cells; format: cell-based, human; details: LN229 (PTEN wildtype, HGF low)
Procedure: as §1, §2, §3, §4

[5] = c-Met inhibitor 17.7 mg/kg (15 mg/kg free base) p.o. qd x21
[6] = c-Met inhibitor 35.3 mg/kg (30 mg/kg free base) p.o. qd x21

## CNC(=O)c1ccc(-c2cnc3ncc(Cc4ccc5ncccc5c4)n3n2)cc1F [c-Met inhibitor]
[1]; c-Met inhibitor 15 mg/kg free base p.o. qd x21
  increase of median TTE: 21.4 days
[1]; [5]
  % TGD: 183%
  T/C or T/T0: 5%
  Median TTE: 33.1 days
[1]; c-Met inhibitor 17.7 mg/kg (15 mg/kg free base) p.o. qd x21, listed as c-Met inh.
  T/C or T/T0: 5%
[1]; c-Met inhibitor 17.7 mg/kg p.o. qd x21
  Regress.: PR: 4 PR
[1]; c-Met inhibitor 30 mg/kg free base p.o. qd x21
  increase of median TTE: 23.4 days
[1]; [6]
  % TGD: 200%
  T/C or T/T0: 1%
  Median TTE: 35.1 days
[1]; c-Met inhibitor 35.3 mg/kg (30 mg/kg free base) p.o. qd x21, listed as c-Met inh.
  T/C or T/T0: 1%
[1]; c-Met inhibitor 35.3 mg/kg p.o. qd x21
  Regress.: PR: 4 PR
[2]
  anti-proliferative activity (single agent): only moderate activities
[3]
  Deaths: NTR: (1 NTR)
  deaths due to individual body weight losses: One
[4]
  anti-proliferative activity (single agent): completely inactive
